From patent publication US10398142B2, “Polycationic amphiphiles as antimicrobial agents” (priority 2013, dated 2019) come the findings set out here.

Like-named read-outs stand apart in the source and are kept apart here.

One series deals with S. aureus biofilms. The series is described as follows: Crystal violet staining and confocal microscopy of pre-established biofilms. The series is classed as cell-based, Staphylococcus aureus. The settings on record: compared to the aqueous control or norspermidine; 16 h post-treatment. Here is the method: Left: Submerged S. aureus biofilms 16 h post-treatment with the indicated final well concentration of compound. Middle: Biofilms stained with 1% crystal violet. Right: Confocal microscopy images of biofilms 16 h post-treatment.
The inventors have determined that both cationic character and alkyl side chains are important for biofilm eradication.

Another series concerns E. faecalis biofilms. In words: Minimum biofilm eradication concentration (MBEC), regrowth assay. The series is classed as cell-based, Enterococcus faecalis. In a few lines:
(§1)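 Static 24 h biofilms at 37° C. (BHI for S. aureus, Todd Hewitt for E. faecalis), then 16 h compound exposure, PBS washes and overnight regrowth in fresh media. MBEC is the lowest concentration giving final OD595 below 0.1; four replicates per concentration.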

Series [1] concerns S. aureus (MSSA, SH1000) biofilms. The description is as above. The series is classed as cell-based, Staphylococcus aureus. The note with it: for MBEC MSSA: Table 5, SH1000. In a few lines:
as §1

The subject of series [2] is Staphylococcus aureus MSSA (SH1000). The series is described as follows: Minimum inhibitory concentration (MIC), broth microdilution. The series is classed as cell-based. In a few lines:
(§2)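 Broth microdilution: two-fold serial dilutions (twelve concentrations) mixed 1:1 with overnight cultures diluted to ca. 10^6 cfu/mL in Mueller-Hinton media, incubated statically at 37° C for 72 hours. MIC is lowest concentration with no growth visible to the naked eye, majority of three independent experiments.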
On the technique in general: Dilution methods test growth across graded concentrations, often in twofold steps.

Series [3] deals with Escherichia coli (MC4100). The series is described as above. The settings on record: for MIC: read-out: MIC E. coli. It is filed as cell-based. In a few lines: as §2
Series [4] relates to Pseudomonas aeruginosa (PAO1). Described as above. The series is classed as cell-based. The procedure, abridged:
as §2

For series [5], the system named is Enterococcus faecalis (OG1RF). The description is as above. It is filed as cell-based. The note with it: for MIC: read-out: MIC E. faecalis. In a few lines: as §2
Series [6] concerns red blood cells (defibrinated sheep blood). In words: Hemolysis assay (Lysis20). The settings on record: concentration at which less than 20% of red blood cells are lysed. The procedure, abridged:
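Defibrinated sheep red blood cells were incubated with compounds serially diluted in PBS, and the suspensions were read by OD. 1% Triton X served as 100% lysis and PBS as 0% lysis. Lysis20 is the concentration (μM) at which less than 20% of cells are lysed.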

Series [7] relates to CA-MRSA (USA300-0114). The series is described as follows: Minimum inhibitory concentration (MIC), broth microdilution. The series is classed as cell-based, Staphylococcus aureus. The note with it: for MIC: read-out: MIC CA-MRSA. The procedure, abridged:
(§3)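 Two-fold serial dilutions (twelve concentrations) from aqueous stock; inoculum ca. 10^6 cfu/mL in Mueller-Hinton media, static incubation at 37 °C for 72 h. MIC read visually as lowest concentration with no visible growth, majority of three independent experiments.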

The subject of the next series is HA-MRSA (ATCC 33591). Described as above. It is filed as cell-based, Staphylococcus aureus. The note with it: for MIC: read-out: MIC HA-MRSA. In a few lines:
as §3

Series [8] has as its system CA-MRSA (USA300-0114) biofilms. The series is described as follows: Minimum biofilm eradication concentration (MBEC), regrowth assay. The series is classed as cell-based, Staphylococcus aureus. The note with it: for MBEC CA-MRSA: Table 5, USA300-0114. In a few lines: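 CA-MRSA USA300-0114 biofilms grown statically 24 h at 37 °C in BHI, then exposed to compound for 16 h at 37 °C. After PBS washes, biofilms regrown overnight in fresh media; MBEC is the lowest concentration giving OD595 below 0.1, four replicates per concentration.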

The subject of the next series is MSSA (SH1000). The series is described as follows: Resistance development, liquid culture serial passage. The settings on record: for elevated concentration with consistent growth: MSSA (SH1000) passaged with sub-lethal doses. The series is classed as cell-based, Staphylococcus aureus. Here is the method:
(§4) Resistance development such as liquid culture resistance assay was performed. […] Once a day, an aliquot of bacterial culture from the highest concentration allowing bacterial growth was diluted 1:10,000 in fresh media containing a range of antibacterial compound. This process was repeated for several hundred generations.
(§5) Resistance Development Assays: Liquid culture serial passage protocols, in which bacteria are successively grown at sub-lethal concentrations of antibacterial compound, were employed.

For series [9], the system named is CA-MRSA (USA300-0114). The series is described as above. The series is classed as cell-based, Staphylococcus aureus. How it is done: as §4, §5
Setting [10] is: Table 2, pre-established biofilm, ± values varied between 50 and 100 μM for the six trials.
[11] abbreviates: Table 3, read-out: MIC S. aureus.
The mark [12] stands for this setting: Table 4, SH1000, read-out: MIC MSSA.
The mark [13] stands for this setting: Table 3, read-out: MIC P. aeruginosa.
Where [14] appears, read: table for compound (12,3,2,3,12).
[15] abbreviates: over 24 days (>500 generations).
[16] abbreviates: over a period of at least 14 days.

The term MIC denotes the lowest concentration that inhibits growth of the organism.

As to `CCCCCCCCCCCC[N+](C)(C)CCCN(C)CCC[N+](C)(C)CCCCCCCCCCCC.[Br-].[Br-]` [12,3,0,3,12], the “effect against pre-established biofilms, crystal violet staining” value with S. aureus biofilms is reported as “significant effect”. Further, the results for the “MBEC E. faecalis” value in the series with E. faecalis biofilms (setting [10]) and in the series with E. faecalis biofilms (Table 5) were 50 µM and 100 µM, respectively. Also, the “MBEC S. aureus” value in series [1] (setting [10]) worked out at 100 µM. In addition, the “MBEC MSSA” value in [1] stood at 50 µM. Also, the MIC in series [2] (Table 1, read-out: MIC S. aureus) is given as 1 µM; in [2] (setting [11]) it was 1 µM; in series [2] (setting [12]), 1 µM; in [3] (Table 1), at most 0.25 µM; in series [3] (Table 3), 1 µM; in series [4] (Table 1, read-out: MIC P. aeruginosa) it was 4 µM. Also, the minimum inhibitory concentration (MIC) in series [4] (setting [13]) was 4 µM; in series [5] (Table 1), at most 0.25 µM; in series [5] (Table 3) it was 2 µM; with CA-MRSA (USA300-0114) [7] (Table 4, USA300-0114), 1 µM; with HA-MRSA (ATCC 33591) (Table 4, ATCC 33591), 0.5 µM. The same compound had a Lysis20 in series [6] (Table 4) of 4 µM. Also, in [8], the “MBEC CA-MRSA” value stood at 150 ± 50 µM.

In the case of `CCCCCCCCCCCC[N+](C)(C)CCC[N+](C)(CC)CCC[N+](C)(C)CCCCCCCCCCCC.[Br-].[Br-].[Br-]` [12,3,2,3,12], the “MBEC E. faecalis” value with E. faecalis biofilms (Table 5) and with E. faecalis biofilms (setting [14]) was 100 µM throughout. Besides, the “MBEC MSSA” value in series [1] is 100 µM. Moreover, in [1] (setting [14]), the “MBEC S. aureus” value came out at 100 µM. Besides, the minimum inhibitory concentration (MIC) in series [2] (setting [12]) worked out at 0.5 µM; in the series with CA-MRSA (USA300-0114) [7] (Table 4, USA300-0114), 0.5 µM; in the series on HA-MRSA (ATCC 33591) (Table 4, ATCC 33591), 1 µM. For the same compound, the “MIC S. aureus (SH1000)” value in series [2] (setting [14]) came to 0.5 µM. Further, the “MIC E. coli (MC4100)” value in series [3] (setting [14]) came to 1 µM. In addition, the “MIC P. aeruginosa (PA01)” value in series [4] (setting [14]) was 2 µM. Also, the “MIC E. faecalis (OG1RF)” value in [5] (setting [14]) is 0.5 µM. Further, the “resistance in serial passage, MSSA” value in the series with MSSA (SH1000) (setting [15]) is “No resistance was observed”. Besides, the “resistance in serially passaged liquid culture, SH1000” value in the series with MSSA (SH1000) (setting [16]) is listed as “No resistance was observed”. In the series with CA-MRSA (USA300-0114) [9] (setting [15]), the “resistance in serial passage, CA-MRSA (USA300-0114)” value is given as “No resistance was observed”. The “resistance in serially passaged liquid culture, USA300-0114” value in the series on CA-MRSA (USA300-0114) [9] (setting [16]) was “No resistance was observed”. Also, the Lysis20 in series [6] (Table 4) and in series [6] (setting [14]) was 8 µM in each case. Moreover, the “MIC CA-MRSA (USA300-0114)” value with CA-MRSA (USA300-0114) [7] (setting [14]) was 0.5 µM. The “MIC HA-MRSA (ATCC33591)” value with HA-MRSA (ATCC 33591) (setting [14]) came out at 1 µM. Moreover, the “MBEC CA-MRSA” value in [8] is 100 µM. Besides, in series [8] (setting [14]), the “MBEC USA300-0114” value was found to be 100 µM.

Consider `CCCCCCCCCCCC[N+](C)(C)Cc1ccccc1.[Cl-]` [Bn,12, benzyldimethyldodecylammonium chloride, reference compound], for which the “MBEC E. faecalis” value is 200 µM in the series with E. faecalis biofilms (setting [10]) and at least 200 µM in the series on E. faecalis biofilms (Table 5). Further, the “MBEC S. aureus” value in series [1] (setting [10]) was determined as 200 µM. Besides, in series [1], the “MBEC MSSA” value was above 200 µM. The minimum inhibitory concentration (MIC) in [2] (Staphylococcus aureus, MSSA, read-out: MIC MSSA) came out at 8 µM; in series [2] (Staphylococcus aureus, MSSA, read-out: MIC S. aureus) it was 8 µM; in series [2] (setting [11]), 8 µM; in [3] (Escherichia coli), 32 µM; in [3] (Table 3) it was 32 µM; in series [4] (Pseudomonas aeruginosa, PAO1, read-out: MIC P. aeruginosa), 63 µM. Moreover, the MIC in [4] (setting [13]) stood at 63 µM; in [5] (Enterococcus faecalis) it was 8 µM; in [5] (Table 3), 8 µM; with CA-MRSA (USA300-0114) [7] (Staphylococcus aureus), 32 µM; in the series on HA-MRSA (ATCC 33591) (Staphylococcus aureus) it was 8 µM. Moreover, in the series with MSSA (SH1000) (Bn,12: 31 days (>700 generations), 10,10: 10 days, 240 generations), the “resistance development in MSSA (in words)” value is “development of resistance”. Also, the “elevated concentration with consistent growth” value in the series with MSSA (SH1000) (at day 11) was 2 ×MIC; with MSSA (SH1000) (at day 24), 4 ×MIC. The Lysis20 in [6] (Table 4) was 63 µM. The “potency against CA-MRSA strain possessing qacA/R (in words)” value in the series with CA-MRSA (USA300-0114) [7] (compared with MSSA) was “decreased potency”. The “MBEC CA-MRSA” value in [8] was at most 200 µM.
